In brackets after ≈: the same amount, converted by molar mass. Several values for one entry are separate records, joined by “and”; a condition that tells them apart may be missing. Identical values can stand only once. Each block holds one compound with its values, some of them ahead of it.
Assays:
Test in all cases: ≥ marks a high value that may be exact or a test limit, other limits are often not marked, values filed in µg/mL are converted to µM
[1] = system: Candida albicans CCARM 14020
Candida albicans SC5314 = system: Candida albicans SC5314
[2] = system: Candida albicans CCARM 14022
[3] = system: Candida albicans CCARM 14021
[4] = system: Pseudomonas aeruginosa ATCC 10662
[5] = system: Klebsiella pneumoniae ATCC 27736
Staphylococcus aureus = system: Staphylococcus aureus
[6] = system: Staphylococcus epidermidis ATCC 1435
[7] = system: Pseudomonas aeruginosa ATCC BAA-427
Acinetobacter baumannii = system: Acinetobacter baumannii
[8] = system: Bacillus subtilis ATCC 6633
[9] = system: Vibrio harveyi ATCC 14126
Edwardsiella tarda = system: Edwardsiella tarda
[10] = system: Vibrio alginolyticus KCCM 2928
[11] = system: Vibrio vulnificus KCTC 2982
[12] = system: Streptococcus iniae FP5228
Escherichia coli JM109 = system: Escherichia coli JM109
[13] = system: Vibrio campbellii KCCM 40684
[14] = system: Vibrio ordalii KCCM 41669
[15] = system: Escherichia coli ATCC 25922 ΔrfaC
Enterococcus faecalis = system: Enterococcus faecalis
[16] = system: Pseudomonas aeruginosa ATCC 27853
[17] = system: Staphylococcus aureus ATCC 43300
[18] = system: Salmonella enterica subsp. enterica serovar Typhimurium LT2
Enterococcus faecalis VR = system: Enterococcus faecalis VR
[19] = system: Staphylococcus aureus ATCC 29213
Pseudomonas aeruginosa = system: Pseudomonas aeruginosa
[20] = system: Campylobacter jejuni NCTC 11168
[21] = system: Aeromonas salmonicida ATCC 33658
[22] = system: Listeria monocytogenes N22-2
Escherichia coli BW25113 = system: Escherichia coli BW25113
[23] = system: Yersinia ruckeri 392/2003
[24] = system: Escherichia coli ATCC BAA-2523
[25] = system: Escherichia coli ATCC 25922
[26] = system: Flavobacterium psychrophilum 1947
[27] = system: Enterococcus faecalis ATCC 29212
[28] = system: Escherichia coli BW25113 ΔrfaC
[29] = system: Cryptococcus neoformans var. grubii H99
[30] = system: Xanthomonas campestris pv. campestris
Bacillus subtilis = system: Bacillus subtilis
[31] = system: Xanthomonas oryzae pv. oryzae
[32] = system: Escherichia coli DH5alpha
[33] = system: Pseudomonas aeruginosa CGMCC 1.860
[34] = system: Pseudomonas aeruginosa 0108
[35] = system: Lactococcus lactis AS1.1690
[36] = system: Enterococcus faecalis CGMCC 1.595
Bacillus cereus AS1.126 = system: Bacillus cereus AS1.126
[37] = system: Staphylococcus aureus AS1.72
Escherichia coli AS1.349 = system: Escherichia coli AS1.349
[38] = system: Enterococcus faecium CGMCC 1.2334

SMILES: CC(C)C[C@H](NC(=O)CNC(=O)[C@H](Cc1cnc[nH]1)NC(=O)[C@H](Cc1cnc[nH]1)NC(=O)[C@H](CCCN=C(N)N)NC(=O)[C@H](CCCCN)NC(=O)[C@H](C)N)C(=O)N[C@@H](CC(N)=O)C(=O)N[C@@H](CS)C(=O)N[C@@H](C)C(=O)N[C@@H](CCCCN)C(=O)NCC(=O)N[C@H](C(=O)N[C@@H](CC(C)C)C(=O)N[C@@H](C)C(N)=O)C(C)C [AKRHHGLNCAKGVLA]
MIC [1]: 14.4 µM (≈ 22.6 µg/mL)
MIC (Candida albicans SC5314): 14.4 µM (≈ 22.6 µg/mL)
MIC [2]: 3.59 µM (≈ 5.65 µg/mL)
MIC [3]: 3.59 µM (≈ 5.65 µg/mL)

SMILES: CC[C@H](C)[C@H](NC(=O)CNC(=O)[C@H](CCCN=C(N)N)NC(=O)[C@H](Cc1ccccc1)NC(=O)[C@@H](NC(=O)[C@H](Cc1cnc[nH]1)NC(=O)[C@H](Cc1cnc[nH]1)NC(=O)[C@H](Cc1ccccc1)NC(=O)[C@@H](N)Cc1ccccc1)[C@@H](C)CC)C(=O)N[C@H](C(=O)N[C@@H](Cc1cnc[nH]1)C(=O)N[C@H](C(=O)NCC(=O)N[C@@H](CCCCN)C(=O)N[C@H](C(=O)N[C@@H](C)C(=O)N[C@@H](Cc1cnc[nH]1)C(=O)N[C@@H](CCCN=C(N)N)C(=O)N[C@@H](CC(C)C)C(=O)N[C@H](C(=O)N[C@H](C(=O)NCC(N)=O)[C@@H](C)O)C(C)C)[C@@H](C)O)C(C)C)C(C)C [FFHHIFRGIVHVGKTAHRLVTG]
MIC [4]: 9.88 µM (≈ 25 µg/mL)
MIC [5]: 8 µM (≈ 20.2 µg/mL)
MIC (Staphylococcus aureus): 1.23 µM (≈ 3.1 µg/mL)
MIC [6]: 0.593 µM (≈ 1.5 µg/mL)
MIC [7]: 12 µM (≈ 30.3 µg/mL)
MIC (Acinetobacter baumannii): 1.23 µM (≈ 3.1 µg/mL)
MIC [8]: 8 µM (≈ 20.2 µg/mL)

SMILES: CC[C@H](C)[C@H](NC(=O)[C@H](C)NC(=O)[C@H](Cc1cnc[nH]1)NC(=O)CNC(=O)[C@@H](NC(=O)CNC(=O)[C@H](Cc1cnc[nH]1)NC(=O)[C@H](CC(C)C)NC(=O)[C@H](CC(C)C)NC(=O)[C@H](CCSC)NC(=O)CNC(=O)[C@H](CC(C)C)NC(=O)[C@H](Cc1ccccc1)NC(=O)CNC(=O)[C@H](CCC(=O)O)NC(=O)CN)C(C)C)C(=O)N[C@@H](Cc1cnc[nH]1)C(=O)NCC(=O)N[C@@H](CC(C)C)C(=O)N[C@H](C(=O)N[C@@H](Cc1cnc[nH]1)C(=O)NCC(=O)N[C@@H](CCCCN)C(=O)O)[C@@H](C)CC [GEGFLGMLLHGVGHAIHGLIHGK]
MIC [9]: 0.9 µM (≈ 2.12 µg/mL)
MIC (Edwardsiella tarda): ≥ 354 µM
MIC [10]: 1.31 µM (≈ 3.07 µg/mL)
MIC [11]: 5.52 µM (≈ 13 µg/mL)
MIC [12]: 0.9 µM (≈ 2.12 µg/mL)
MIC (Escherichia coli JM109): 2.72 µM (≈ 6.4 µg/mL)
MIC [13]: 1.9 µM (≈ 4.47 µg/mL)
MIC [14]: 0.9 µM (≈ 2.12 µg/mL)

Further lines, results first:

MIC [15]: 6.85 µM (≈ 16 µg/mL)
MIC (Enterococcus faecalis): 16 µM (≈ 37.4 µg/mL)
MIC [16]: 9.69 µM and 16 µM
MIC [17]: 16 µM (≈ 37.4 µg/mL)
MIC [18]: 6.85 µM (≈ 16 µg/mL)
MIC (Enterococcus faecalis VR): 16 µM (≈ 37.4 µg/mL)
MIC [19]: 6.85 µM and 16 µM
MIC (Pseudomonas aeruginosa): 16 µM (≈ 37.4 µg/mL)
MIC [20]: 0.856 µM (≈ 2 µg/mL)
MIC [21]: 19.4 µM (≈ 45.3 µg/mL)
MIC [22]: 6.85 µM (≈ 16 µg/mL)
MIC (Escherichia coli BW25113): 6.85 µM (≈ 16 µg/mL)
MIC [23]: 4.84 µM (≈ 11.3 µg/mL)
MIC [24]: ≥ 32 µM
MIC [25]: 9.69 µM and 16 µM
MIC [26]: ≥ 110 µM
MIC [27]: 4.84 µM (≈ 11.3 µg/mL)
MIC [28]: 3.42 µM (≈ 8 µg/mL)
SMILES: CC[C@H](C)[C@H](NC(=O)[C@H](CC(C)C)NC(=O)[C@H](CCCCN)NC(=O)[C@H](CC(C)C)NC(=O)[C@H](CC(C)C)NC(=O)[C@H](CCCCN)NC(=O)[C@H](CCCN=C(N)N)NC(=O)[C@H](Cc1ccccc1)NC(=O)[C@H](CC(C)C)NC(=O)[C@H](CCCCN)NC(=O)[C@H](CCCN=C(N)N)NC(=O)[C@H](CC(C)C)NC(=O)[C@@H](N)CCCCN)C(=O)N[C@@H](CCCN=C(N)N)C(=O)N[C@@H](CCCCN)C(=O)N[C@@H](CC(C)C)C(=O)N[C@@H](CC(C)C)C(=O)N[C@@H](CCCN=C(N)N)C(=O)O [KLRKLFRKLLKLIRKLLR]

MIC [16]: > 100 µM
MIC [29]: ≥ 100 µM
MIC [30]: ≥ 100 µM
MIC (Candida albicans SC5314): ≥ 100 µM
MIC (Bacillus subtilis): ≥ 100 µM
MIC [31]: ≥ 100 µM
MIC [32]: ≥ 100 µM
SMILES: CC(C)C[C@H](NC(=O)CNC(=O)[C@H](CS)NC(=O)CNC(=O)[C@H](CC(N)=O)NC(=O)CNC(=O)[C@H](Cc1c[nH]c2ccccc12)NC(=O)CNC(=O)[C@H](CCCN=C(N)N)NC(=O)[C@H](C)NC(=O)[C@@H](N)C(C)C)C(=O)N[C@@H](Cc1ccccc1)C(=O)NCC(=O)N[C@@H](CCCCN)C(=O)NCC(=O)NCC(=O)O [VARGWGNGCGLFGKGG]

MIC [33]: 3.13 µM (≈ 5.09 µg/mL)
MIC [34]: 6.25 µM (≈ 10.2 µg/mL)
SMILES: CC[C@H](C)[C@H](NC(=O)[C@H](CCCCN)NC(=O)[C@H](CO)NC(=O)[C@H](CC(C)C)NC(=O)[C@@H](NC(=O)[C@H](CCCCN)NC(=O)[C@H](CCCCN)NC(=O)[C@@H](N)Cc1c[nH]c2ccccc12)[C@@H](C)CC)C(=O)N[C@@H](CCCCN)C(=O)N[C@@H](CCCCN)C(=O)N[C@@H](CC(C)C)C(=O)N[C@@H](CC(C)C)C(=O)N[C@@H](CCCCN)C(N)=O [WKKILSKIKKLLK]

MIC [35]: 6.25 µM (≈ 10.1 µg/mL)
MIC [36]: 3.13 µM (≈ 5.08 µg/mL)
MIC [33]: 3.13 µM (≈ 5.08 µg/mL)
MIC (Bacillus cereus AS1.126): 6.25 µM (≈ 10.1 µg/mL)
MIC [37]: ≥ 50 µM
MIC (Escherichia coli AS1.349): 25 µM (≈ 40.6 µg/mL)
MIC [38]: 6.25 µM (≈ 10.1 µg/mL)
SMILES: NC(N)=NCCC[C@H](NC(=O)[C@H](Cc1cnc[nH]1)NC(=O)[C@H](Cc1c[nH]c2ccccc12)NC(=O)[C@H](Cc1ccccc1)NC(=O)[C@H](CCCN=C(N)N)NC(=O)[C@H](CCCN=C(N)N)NC(=O)[C@H](Cc1c[nH]c2ccccc12)NC(=O)[C@H](Cc1cnc[nH]1)NC(=O)[C@H](CCCN=C(N)N)NC(=O)[C@@H](N)Cc1c[nH]c2ccccc12)C(=O)O [WRHWRRFWHR]

Reference: DBAASP
